The test system of this series is rodent carcinogenicity bioassays, tumor incidence. The experiment in a line: CCRIS carcinogenicity studies. The conditions noted are these: Dose: 0, Dose: 0. The method, boiled down:
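NCI-built, expert-reviewed records of carcinogenicity and related test outcomes (mutagenicity, tumor promotion/inhibition) compiled from published and report sources, historical span 1985-2011, not updated.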

Calls of active or inactive are those of the source. The rule behind the calls is not given here.

`ClCC(Cl)CCl`: the carcinogen call (Species: GUPPIE, Strain/Sex: FEMALE, Route: AQUARIUM WATER, 4.5, 9, 18 MG/L FOR 9 MO THEN IN CLEAN WATER FOR 7 MO (STUDY DURATION: 16 MO), 4.5, 9, 18 MG/L FOR 9 MO THEN IN CLEAN WATER FOR 7 MO (STUDY DURATION: 16 MO), Tumor Site: Type of Lesion: LIVER: CHOLANGIOCARCINOMA, HEPATOCELLULAR ADENOMA OR CARCINOMA) is “active; positive”; the carcinogen call (Species: GUPPIE, Strain/Sex: FEMALE, Route: AQUARIUM WATER, 4.5, 9, 18 MG/L FOR 16 MO (STUDY DURATION: 16 MO), 4.5, 9, 18 MG/L FOR 16 MO (STUDY DURATION: 16 MO), Tumor Site: Type of Lesion: LIVER: HEPATOCELLULAR ADENOMA OR CARCINOMA, CHOLANGIOCARCINOMA) is “active; positive”; the carcinogen call (Species: GUPPIE, Strain/Sex: MALE, Route: AQUARIUM WATER, 4.5, 9, 18 MG/L FOR 9 MO THEN IN CLEAN WATER FOR 7 MO (STUDY DURATION: 16 MO), 4.5, 9, 18 MG/L FOR 9 MO THEN IN CLEAN WATER FOR 7 MO (STUDY DURATION: 16 MO), Tumor Site: Type of Lesion: LIVER: HEPATOCELLULAR ADENOMA OR CARCINOMA) is “active; positive”; the carcinogen call (Species: GUPPIE, Strain/Sex: MALE, Route: AQUARIUM WATER, 4.5, 9, 18 MG/L FOR 16 MO (STUDY DURATION: 16 MO), 4.5, 9, 18 MG/L FOR 16 MO (STUDY DURATION: 16 MO), Tumor Site: Type of Lesion: LIVER: HEPATOCELLULAR ADENOMA OR CARCINOMA) is “active; positive”; the carcinogen call (Species: MEDAKA, Strain/Sex: FEMALE, Route: AQUARIUM WATER, 4.5, 9, 18 MG/L FOR 9 MO THEN IN CLEAN WATER FOR 4 MO (STUDY DURATION: 13 MO), 4.5, 9, 18 MG/L FOR 9 MO THEN IN CLEAN WATER FOR 4 MO (STUDY DURATION: 13 MO), Tumor Site: Type of Lesion: LIVER: CHOLANGIOCARCINOMA, HEPATOCELLULAR ADENOMA OR CARCINOMA, GALL BLADDER: ADENOMA) was “active; positive”; the carcinogen call (Species: MEDAKA, Strain/Sex: FEMALE, Route: AQUARIUM WATER, 4.5, 9, 18 MG/L FOR 13 MO (STUDY DURATION: 13 MO), 4.5, 9, 18 MG/L FOR 13 MO (STUDY DURATION: 13 MO), Tumor Site: Type of Lesion: LIVER: CHOLANGIOCARCINOMA, HEPATOCELLULAR ADENOMA OR CARCINOMA, HEPATOCHOLANGIOCARCINOMA, GALL BLADDER: ADENOMA) is “active; positive”. Also, the carcinogen call is “active; positive” (Species: MEDAKA, Strain/Sex: MALE, Route: AQUARIUM WATER, 4.5, 9, 18 MG/L FOR 9 MO THEN IN CLEAN WATER FOR 4 MO (STUDY DURATION: 13 MO), 4.5, 9, 18 MG/L FOR 9 MO THEN IN CLEAN WATER FOR 4 MO (STUDY DURATION: 13 MO), Tumor Site: Type of Lesion: LIVER: CHOLANGIOCARCINOMA, HEPATOCELLULAR ADENOMA OR CARCINOMA, GALL BLADDER: ADENOMA); “active; positive” (Species: MEDAKA, Strain/Sex: MALE, Route: AQUARIUM WATER, 4.5, 9, 18 MG/L FOR 13 MO (STUDY DURATION: 13 MO), 4.5, 9, 18 MG/L FOR 13 MO (STUDY DURATION: 13 MO), Tumor Site: Type of Lesion: LIVER: CHOLANGIOCARCINOMA, HEPATOCELLULAR ADENOMA OR CARCINOMA, GALL BLADDER: ADENOMA, HEPATOCHOLANGIOCARCINOMA); “active; positive” (Species: MOUSE, Strain/Sex: B6C3F1/FEMALE, Route: GAVAGE, 6, 20, 60 MG/KG BW IN CORN OIL 5 D/WK FOR 104 WK (STUDY DURATION: 2 YR), 6, 20, 60 MG/KG BW IN CORN OIL 5 D/WK FOR 104 WK (STUDY DURATION: 2 YR), Tumor Site: Type of Lesion: HARDERIAN GLAND: ADENOMA, LIVER: HEPATOCELLULAR ADENOMA, PHARYNX: SQUAMOUS CELL CARCINOMA, FORESTOMACH: SQUAMOUS CELL PA, Tumor Site: Type of Lesion: HARDERIAN GLAND: ADENOMA, LIVER: HEPATOCELLULAR ADENOMA, PHARYNX: SQUAMOUS CELL CARCINOMA, FORESTOMACH: SQUAMOUS CELL PA); “active; positive” (Species: MOUSE, Strain/Sex: B6C3F1/MALE, Route: GAVAGE, 6, 20, 60 MG/KG BW IN CORN OIL 5 D/WK FOR 104 WK (STUDY DURATION: 2 YR), 6, 20, 60 MG/KG BW IN CORN OIL 5 D/WK FOR 104 WK (STUDY DURATION: 2 YR), Tumor Site: Type of Lesion: HARDERIAN GLAND: ADENOMA, LIVER: HEPATOCELLULAR ADENOMA, FORESTOMACH: SQUAMOUS CELL PAPILLOMA, SQUAMOUS CELL CARCINOMA, Tumor Site: Type of Lesion: HARDERIAN GLAND: ADENOMA, LIVER: HEPATOCELLULAR ADENOMA, FORESTOMACH: SQUAMOUS CELL PAPILLOMA, SQUAMOUS CELL CARCINOMA); “active; positive” (Species: RAT, Strain/Sex: F344/FEMALE, Route: GAVAGE, 3, 10, 30 MG/KG BW IN CORN OIL 5 D/WK FOR 104 WK (STUDY DURATION: 2 YR), 3, 10, 30 MG/KG BW IN CORN OIL 5 D/WK FOR 104 WK (STUDY DURATION: 2 YR), Tumor Site: Type of Lesion: CLITORAL GLAND: ADENOMA, CARCINOMA, MAMMARY GLAND: CARCINOMA, PHARYNX: SQUAMOUS CELL CARCINOMA, FORESTOMACH: SQUAMOUS CE, Tumor Site: Type of Lesion: CLITORAL GLAND: ADENOMA, CARCINOMA, MAMMARY GLAND: CARCINOMA, PHARYNX: SQUAMOUS CELL CARCINOMA, FORESTOMACH: SQUAMOUS CE); “active; positive” (Species: RAT, Strain/Sex: F344/MALE, Route: GAVAGE, 3, 10, 30 MG/KG BW IN CORN OIL 5 D/WK FOR 104 WK (STUDY DURATION: 2 YR), 3, 10, 30 MG/KG BW IN CORN OIL 5 D/WK FOR 104 WK (STUDY DURATION: 2 YR), Tumor Site: Type of Lesion: KIDNEY (RENAL TUBULE): ADENOMA, PANCREAS: ADENOMA, PHARYNX: SQUAMOUS CELL CARCINOMA, PREPUTIAL GLAND: ADENOMA, CARCINOMA, Tumor Site: Type of Lesion: KIDNEY (RENAL TUBULE): ADENOMA, PANCREAS: ADENOMA, PHARYNX: SQUAMOUS CELL CARCINOMA, PREPUTIAL GLAND: ADENOMA, CARCINOMA).
On to `ClC1=C(Cl)[C@]2(Cl)[C@H]3[C@H]([C@@H]4C=C[C@H]3C4)[C@@]1(Cl)C2(Cl)Cl`, for which the carcinogen call (Species: MOUSE, Strain/Sex: B6C3F1/FEMALE, Route: ORAL, 3, 6 PPM IN DIET FOR 80 WK (STUDY DURATION: 112-113 WK), 3, 6 PPM IN DIET FOR 80 WK (STUDY DURATION: 112-113 WK)) was “inactive; negative”; the carcinogen call (Species: MOUSE, Strain/Sex: B6C3F1/MALE, Route: ORAL, 4, 8 PPM IN DIET FOR 74 WK (STUDY DURATION: 111-112 WK), 4, 8 PPM IN DIET FOR 74 WK (STUDY DURATION: 111-112 WK), Tumor Site: Type of Lesion: LIVER: HEPATOCELLULAR CARCINOMA) is “active; positive”; the carcinogen call (Species: RAT, Strain/Sex: OSBORNE-MENDEL/FEMALE, Route: ORAL, 30, 60 PPM IN DIET FOR 80 WK (STUDY DURATION: 112-113 WK), 30, 60 PPM IN DIET FOR 80 WK (STUDY DURATION: 112-113 WK), Tumor Site: Type of Lesion: THYROID GLAND: FOLLICULAR CELL ADENOMA OR CARCINOMA, ADRENAL GLAND: CORTICAL ADENOMA) is listed as “equivocal”; the carcinogen call (Species: RAT, Strain/Sex: OSBORNE-MENDEL/MALE, Route: ORAL, 30, 60 PPM IN DIET FOR 74 WK (STUDY DURATION: 111-112 WK), 30, 60 PPM IN DIET FOR 74 WK (STUDY DURATION: 111-112 WK), Tumor Site: Type of Lesion: THYROID GLAND: FOLLICULAR CELL ADENOMA OR CARCINOMA) was “equivocal”.
